{
  "source": "patent US11541029B2",
  "about": "“High penetration compositions and their applications” (Techfields Pharma Co., Ltd., priority 2008, dated 2023)",
  "key": {"[1]": {"assay": "Distribution in organs of rats killed with CO2 (absence of general circulation);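 note: tissue concentration in nmol/g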", "settings": "5 hrs after 0.3 mmol/kg diethylaminoethyl acetylsalicylate HCl salt on back of killed rats", "experimental": "0.3 mmol/kg of diethylaminoethyl acetylsalicylate HCl salt (10% in pure water) was applied to the back of rats (10 cm^2) which were killed with CO2. The rats were shaken for 5 hrs, then the HPCs and parent drugs in organs of rats were determined."}, "[2]": {"test_system": "type 2 diabetes rat models [SLAC/GK(Goto and Kakisaki)]", "assay": "Hypoglycemic effects of aspirin and its HPC in GK rats, once per day for 6 weeks", "assay_type": "in vivo", "settings": "for Blood Glucose Levels at day 1 / Blood Glucose Levels at day 42: no fasting, n = 5", "method": "The blood glucose levels were measured three times every week (no fasting) from the third week to the sixth week."}, "normal SD rats (SLAC/SD)": {"test_system": "normal SD rats (SLAC/SD)", "assay": "Blood glucose in normal SD rats treated with HPCs of NSAIAs", "assay_type": "in vivo", "settings": "30 mg/kg transdermally once per day, no fasting", "method_in_brief": "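GK (type 2 diabetic) and normal SD rats, 14-16 weeks old, n=7, received 30 mg/kg test compound in 25% ethanol transdermally on a 6 cm^2 shaved back area once daily at 8 am for 6 weeks. Non-fasting blood glucose was measured at 4:30 pm every 3 days from week 3 to week 6.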"}, "[3]": {"test_system": "autologous blood clots injected in femoral vein (pulmonary thrombus)", "assay": "Anti-thrombosis activity, autologous blood clots in rabbits", "assay_type": "in vivo, Chinese White rabbits", "settings": "50 mg/kg topically to the back twice per day, 5 days", "experimental": "Eighteen Chinese White rabbits weighing between 3.0 and 3.5 kg (aged 6-7 months) were selected and divided into three groups (control, P-1 and […] groups, n=6). One hour before the experiment, thrombi were made by aspirating venous blood (1 ml) into a sterilized bottle to clot. To avoid fragmentation and slow lysis, the autologous blood clots were stabilized in temperature-controlled (70° C.) distilled water for 10 min. After anesthesia, the femoral veins were exposed and distally isolated, and autologous blood clots (0.05 g/kg) were injected through an indwelling catheter (20GA), which had been placed in the femoral vein isolated earlier. 50 mg/kg of diethylaminoethyl acetylsalicylate.HCl salt (P-1, 10% in 25% ethanol) and diethylaminoethyl acetylsalicylsalicylate.HCl salt (P-59, 10% in 25% ethanol) were topically applied to the back of the rabbits twice per day. After 5 days, rabbits were euthanized with an excessive intravenous injection of sodium amobarbital (60 mg/kg). The lungs and hearts were isolated to observe whether thrombi were present in the pulmonary arteries. The lungs were immersed in 10% formalin for 24 h. Consecutive transverse sections along the obstructed pulmonary arteries were paraffin-embedded and stained with hematoxylin-eosine. […]"}, "[4]": {"test_system": "diseases and insects of rice", "assay": "Antiviral, anti-fungus, anti-insect activity in rice", "assay_type": "in vivo"}},
  "data": [
    {"smiles": "CCN(CC)CCOC(=O)c1ccccc1OC(C)=O.Cl", "note": "[P-1, diethylaminoethyl acetylsalicylate.HCl salt]", "values": [
      {"measurement": "concentration in Leg muscle", "setting": "[1]", "value": "5.2 ± 3.2", "unit": "nmol/g"},
      {"measurement": "concentration in kidney", "setting": "[1]", "value": "3.1 ± 1.4", "unit": "nmol/g"},
      {"measurement": "concentration in liver", "setting": "[1]", "value": "1.2 ± 1.1", "unit": "nmol/g"},
      {"measurement": "concentration in pancreas", "setting": "[1]", "value": "2.7 ± 1.3", "unit": "nmol/g"},
      {"measurement": "concentration in stomach", "setting": "[1]", "value": "4.3 ± 1.1", "unit": "nmol/g"},
      {"measurement": "Blood Glucose Levels at day 1", "setting": "[2]; 50 mg/kg, orally", "value": "215.6 ± 19.5", "unit": "mg/dL"},
      {"measurement": "Blood Glucose Levels at day 42", "setting": "[2]; 50 mg/kg, orally", "value": "172.4 ± 21.5", "unit": "mg/dL"},
      {"measurement": "Blood Glucose Levels at day 1", "setting": "[2]; 50 mg/kg, transdermally", "value": "217.3 ± 19.7", "unit": "mg/dL"},
      {"measurement": "Blood Glucose Levels at day 42", "setting": "[2]; 50 mg/kg, transdermally", "value": "135.4 ± 19.8", "unit": "mg/dL"},
      {"measurement": "Blood Glucose Levels at day 1", "setting": "[2]; 100 mg/kg, orally", "value": "216.4 ± 18.5", "unit": "mg/dL"},
      {"measurement": "Blood Glucose Levels at day 42", "setting": "[2]; 100 mg/kg, orally", "value": "133.4 ± 23.1", "unit": "mg/dL"},
      {"measurement": "Blood Glucose Levels at day 1", "setting": "[2]; 100 mg/kg, transdermally", "value": "219.8 ± 20.4", "unit": "mg/dL"},
      {"measurement": "Blood Glucose Levels at day 42", "setting": "[2]; 100 mg/kg, transdermally", "value": "115.4 ± 16.7", "unit": "mg/dL"},
      {"measurement": "Blood Glucose Levels at day 1", "setting": "[2]; 200 mg/kg, orally", "value": "214.4 ± 26.5", "unit": "mg/dL"},
      {"measurement": "Blood Glucose Levels at day 42", "setting": "[2]; 200 mg/kg, orally", "value": "125.4 ± 26.8", "unit": "mg/dL"},
      {"measurement": "Blood Glucose Levels at day 1", "setting": "[2]; 200 mg/kg, transdermally", "value": "219.4 ± 23.5", "unit": "mg/dL"},
      {"measurement": "Blood Glucose Levels at day 42", "setting": "[2]; 200 mg/kg, transdermally", "value": "111.4 ± 23.2", "unit": "mg/dL"},
      {"measurement": "Blood Glucose Levels at day 1", "setting": "[2]; 300 mg/kg, orally", "value": "217.4 ± 25.5", "unit": "mg/dL"},
      {"measurement": "Blood Glucose Levels at day 42", "setting": "[2]; 300 mg/kg, orally", "value": "115.4 ± 18.2", "unit": "mg/dL"},
      {"measurement": "anti-diabetic effect, times stronger than that of aspirin", "setting": "[2]; oral administration", "value": "more than 5 times"},
      {"measurement": "blood glucose, Average (Week 2-5)", "setting": "normal SD rats (SLAC/SD)", "value": "5.7 ± 1.3", "unit": "mmol/L"},
      {"measurement": "blood glucose, Day 1", "setting": "normal SD rats (SLAC/SD)", "value": "5.8 ± 1.5", "unit": "mmol/L"},
      {"measurement": "lung tissue and vascular walls (histology)", "setting": "[3]", "value": "both lung tissue and vascular walls were normal"},
      {"measurement": "Yield of good rice", "setting": "[4]; 1/2 acre per group, imidacloprid co-applied in group C", "value": 1800, "unit": "kg"},
      {"measurement": "harvest dates earlier", "setting": "[4]; group C and D", "value": 5, "unit": "days"}
    ]}
  ]
}
